Results as given in article PMC11288129, “Diversely evolved xibalbin variants from remipede venom inhibit potassium channels and activate PKA-II and Erk1/2 signaling” (BMC Biology, 2024).
Entries after “also recorded” stand apart in the source; their conditions may differ. Positions of bridges follow the written chain, without caps; N, C: chain ends. No end group written: not given here.

Tested on: Erk1/2 (T202/Y204) in rat DRG neurons
Test: High-content imaging of pERK1/2 in DRG sensory neurons
Format: cell-based
Conditions: for pErk1/2 activation: 5 and 30 min, 0.005 to 0.8 µg/µL; for pErk1/2 response by neuron size: xibalbins 0.8 µg/µL
Protocol: To gauge sensory neuron activity in response to various activating stimuli, including electrical activity, phosphorylation state detection of protein kinase A type II (PKA-II) and MAP kinase Erk1/2 can act as surrogate measurements. Consequently, we tested for increased phosphorylation states in a concentration-dependent manner following exposure to xibalbins. Dissociated DRG neurons were cultured overnight and then exposed to increasing concentrations of the corresponding xibalbins for 5 min and 30 min, respectively. As a positive control, forskolin (Fsk) was also used to induce cAMP synthesis. The activity of PKA-II was monitored by antibodies directed against the phosphorylation site of the inhibitory regulatory subunits RIIα/β, which is exclusively accessible when the catalytic kinase domain is released during kinase activation. For measuring Erk1/2 activity, phospho-sites on Erk1/2 (T202/Y204) were monitored through immunofluorescence, as these sites are phosphorylated during activation. Cellular images were captured using HCI microscopy (Fig. 8A), and the average intensity of each phospho-antibody was quantified (Fig. 8B).
Fig. 8 A Representative images of rat DRG neurons stimulated with PBS (Ctrl) and xib1b (0.8 µg/µL). Cells were stained for UCHL1, pRII, pERK1/2, and Hoechst followed by fixation and staining with standard immunocytochemistry protocols. Green-encircled neurons indicate automatically selected objects. Scale bar: 100 µm. B Mean intensities of UCHL1, pRII, and pERK1/2. The same UCHL1 intensities were observed among tested groups. Forskolin (Fsk), an activator of adenylyl cyclase, was used as a positive control. Fsk at 6 µM concentration induced an increase in pRII and pERK1/2 intensities at 5 and 30 min. Number of analyzed cells per replica: 750 ± 200. Eight independent replicas. C–F Concentration responses of xibalbin toxins (0.005 to 0.8 µg/µL) and mean intensities of pRII and pERK1/2 at 5 min and 30 min. G–H Size versus pRII and pErk1/2 intensities of cells treated with 0.8 µg/µL of xib1 and xib13. Small-sized cells were responding to xibalbins. Statistical significance was assessed using one-way ANOVA with Dunnett’s post hoc test. Data represent mean ± S.E.M (standard error of the mean), n = 4, see “Methods” for details and Additional File 6: Table S2 for individual data values
Male Sprague Dawley rats (250–400 g, 8–16 weeks old) were obtained from Envigo. Rats were kept in 12 h of light/darkness cycles. All experiments were performed in accordance with the German animal welfare law with permission of the District Government for Nature and Environment, NRW (84–02.05.20.13.045, 4.18.003). Rats were scarified by slow inhalation of CO2 which was followed by decapitation. DRGs were extracted from rats, deheated, pooled, and incubated in Neurobasal A/B27 medium (Invitrogen, #12349–015) supplemented with B-27 (Invitrogen #17504), L-glutamine 1:400, L-glutamate 1:270.3, and penicillin/streptomycin 1:100 containing 0.2 U/mL collagenase P (collagenase P, Roche, #1213857) and incubated for 1 h at 37 °C, 5% CO2. DRGs were dissociated with pasteur pipettes and axon stumps were separated by BSA (Sigma-Aldrich, # A2153-100G) gradient centrifugation (14% BSA, 120 g, 8 min). Cells were resuspended in NBA medium, plated in 96-well imaging plate (Greiner BioOne Sensoplate, Black, #655896) precoated with poly-L-ornithine hydrochloride (0.1 mg/ml Sigma, #P2533)/laminin (5 µg/ml Invitrogen, #23017–015), and incubated overnight at 37 °C, 5% CO2.
DRGs were stimulated after overnight incubation. Compounds were prepared as tenfold concentrated stock solutions, diluted in PBS (PAA, cat# H15-002), in v-bottom plates; 50 µL media from culture wells were mixed with the […] stock solutions, and 50 µL added back to the respective wells. Stimulation was performed with automated multichannel pipette and cells were kept in heated block during the stimulation. […]

[1] = 30 min, 0.8 µg/µL (xib13 148 µM, q = 4.32; xib1 154 µM, q = 4.07)

RLFCIRHHKYCGHRPKRCCSGLFCRCNTFGTNCRCQSKGALGKLI (disulfide 4-19, 11-24, 18-35, 26-33) [xib1]
pErk1/2 activation: increase PKA-II and Erk1/2 sensitization signaling; also recorded: increased PKA-II and pErk1/2 activity
increase in pErk1/2 signal [1]: 2.17 fold
pErk1/2 response by neuron size: increased phosphorylation signals in both small-sized and large-sized sensory neurons

KRSCIRRFGRCDHRPNDCCYNSSCRCNLWGSNCRCQRMGLFQKWGK (disulfide 4-19, 11-24, 18-35, 26-33) [xib13]
pErk1/2 activation: increase PKA-II and Erk1/2 sensitization signaling; also recorded: increased PKA-II and pErk1/2 activity
increase in pErk1/2 signal (5 min, 0.8 µg/µL (148 µM), q = 4.54): up to 2.5 fold
increase in pErk1/2 signal [1]: ≤ 2.3 fold
pErk1/2 response by neuron size: increased phosphorylation signals in both small-sized and large-sized sensory neurons
